Data reported in the NIST ThermoML archive (doi:10.1016/j.fluid.2016.02.028).
Numbers after ± are expanded uncertainties.

details: 298.15 K; 101.33 kPa; Liquid; Vibrating tube method

mass density	Structure (SMILES)
873.71 ± 2 kg/m3	c1ccccc1 [benzene]
726.15 ± 2 kg/m3	CCCCCCCCCC [decane]
698.86 ± 2 kg/m3	CCCCCCCC [octane]

Structure (SMILES)	mass density
CCCC[N+](C)(CCCC)CCCC.O=S(=O)([N-]S(=O)(=O)C(F)(F)F)C(F)(F)F [tributylmethylammonium bis((trifluoromethyl)sulfonyl)imide]	1261.65 ± 6 kg/m3
